Measured values taken from patent US20240360165A1, “INHIBITORS OF CYCLIN DEPENDENT KINASE 7 (CDK7)” (Syros Pharmaceuticals, Inc., priority 2016, published 2024).
pIC50: −log10 of the molar value. Read-outs that look alike come from different tables or passages of the source.

Legend:
[1] = tested on: A673 cells; assay: Inhibition of proliferation of A673 cells (CyQUANT, 72 hour); type: cell-based, human; conditions: A673 cells, 72 hour, CyQUANT, read-out: Inhibition of Proliferation of A673 Cells (calculated IC50)
Method: A673 cells are a cell line derived from human […] Ewing's sarcoma. Representative compounds of the invention were tested at different concentrations (from […]; 0.5 log serial dilutions) for their ability to inhibit the proliferation of A673 cells. Known CDK inhibitors dinaciclib or N-((1S,3R)-3-((5-chloro-4-(1H-indol-3-yl)pyrimidin-2-yl)amino)cyclohexyl)-5-((E)-4-(dimethylamino)but-2-enamido)picolinamide and triptolide were used as positive controls. Cells were grown in Dulbecco's Modified Eagle's Medium, +10% FBS+1 mM Sodium Pyruvate. The cells were cultured at 37° C. in a humidified chamber in the presence of 5% CO2. Proliferation assays were conducted over a 72 hour time period. CyQUANT® (Life Technologies, Chicago, IL USA) was used to assess the anti-proliferative effects of the compounds following manufacturer's directions and utilizing the reagents supplied with the CyQUANT® kit.

[2] = biological target: CDK2/Cyclin E1 complex (Homo sapiens, UniProt P24941); assay: CDK2 inhibition assay (Caliper/LabChip EZ Reader kinase assay); type: biochemical; conditions: Table 1; CDK2/Cyclin E1 0.5 nM, ATP 2 mM, 35 min at 27° C.
Method: (§1) Compounds of the invention were assayed for inhibition of CDK7, CDK9, CDK12, and CDK2 activity at Biortus Biosciences (Jiangyin, Jiangsu Province, P.R. of China) using kinase assays for each CDK developed with a Caliper/LabChip EZ Reader (Perkin Elmer, Waltham, MA).
(§2) Furthermore, the CDK9 inhibition assay used CDK9/Cyclin T1 complex (8 nM) and “5-FAM-CDK9tide” peptide substrate (2 μM, synthesized fluorophore-labeled peptide with the following sequence: 5-FAM-GSRTPMY-NH2 where 5-FAM is defined above and NH2 signifies a C-terminal amide) with 10 mM MgCl2 in the buffer composition listed above. […] Additionally, the CDK2 inhibition assay used CDK2/Cyclin E1 complex (0.5 nM) and “5-FAM-CDK7tide” ([…]) as defined above, with 2 mM MgCl2 in the buffer composition listed above.

[3] = biological target: CDK7/Cyclin H/MAT1 complex (Homo sapiens, UniProt P50613); assay: CDK7 inhibition assay (Caliper/LabChip EZ Reader kinase assay); type: biochemical; conditions: Table 1; CDK7/Cyclin H/MAT1 6 nM, ATP 2 mM, 35 min at 27° C.
Chain of CDK7/Cyclin H/MAT1 complex (P50613 whole entry, species assumed): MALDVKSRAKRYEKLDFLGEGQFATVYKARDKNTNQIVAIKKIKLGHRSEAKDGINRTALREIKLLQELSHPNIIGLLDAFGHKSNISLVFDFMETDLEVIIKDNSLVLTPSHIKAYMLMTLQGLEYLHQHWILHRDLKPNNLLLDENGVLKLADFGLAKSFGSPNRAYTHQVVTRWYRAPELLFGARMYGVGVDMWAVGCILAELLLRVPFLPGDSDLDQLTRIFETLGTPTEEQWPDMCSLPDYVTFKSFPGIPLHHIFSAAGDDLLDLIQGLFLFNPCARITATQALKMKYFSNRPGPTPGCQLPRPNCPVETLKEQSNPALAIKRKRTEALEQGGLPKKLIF
Chain of CDK7/Cyclin H/MAT1 complex (P51946 whole entry partner, species assumed): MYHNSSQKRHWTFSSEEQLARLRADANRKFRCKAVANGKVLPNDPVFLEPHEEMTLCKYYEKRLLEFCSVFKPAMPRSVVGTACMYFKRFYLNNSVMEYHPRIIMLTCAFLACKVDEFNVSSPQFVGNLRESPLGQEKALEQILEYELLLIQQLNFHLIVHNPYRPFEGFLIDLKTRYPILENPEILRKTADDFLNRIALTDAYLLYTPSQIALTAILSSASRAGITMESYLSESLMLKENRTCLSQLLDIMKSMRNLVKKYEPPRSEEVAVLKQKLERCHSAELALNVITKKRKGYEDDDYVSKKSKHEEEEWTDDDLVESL
Chain of CDK7/Cyclin H/MAT1 complex (P51948 whole entry partner, species assumed): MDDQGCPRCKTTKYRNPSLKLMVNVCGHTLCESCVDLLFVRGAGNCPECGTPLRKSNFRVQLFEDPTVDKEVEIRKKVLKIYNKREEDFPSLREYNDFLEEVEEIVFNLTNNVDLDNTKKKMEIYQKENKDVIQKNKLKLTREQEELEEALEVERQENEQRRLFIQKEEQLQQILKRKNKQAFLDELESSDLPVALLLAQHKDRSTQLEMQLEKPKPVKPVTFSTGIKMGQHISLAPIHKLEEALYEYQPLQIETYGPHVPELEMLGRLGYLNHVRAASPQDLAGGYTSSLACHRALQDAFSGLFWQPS
Method: as §1, §2

[4] = biological target: T1, CDK12 (aa686-1082)/Cyclin K complex (Homo sapiens, UniProt Q9NYV4); assay: CDK12 inhibition assay (Caliper/LabChip EZ Reader kinase assay); type: biochemical; conditions: Table 1; CDK12 (aa686-1082)/Cyclin K 50 nM, ATP 2 mM, 3 hr at 27° C.
T1 construct: CDK12 (aa686-1082)/Cyclin K complex
T1 sequence (Q9NYV4 686-1082, species assumed): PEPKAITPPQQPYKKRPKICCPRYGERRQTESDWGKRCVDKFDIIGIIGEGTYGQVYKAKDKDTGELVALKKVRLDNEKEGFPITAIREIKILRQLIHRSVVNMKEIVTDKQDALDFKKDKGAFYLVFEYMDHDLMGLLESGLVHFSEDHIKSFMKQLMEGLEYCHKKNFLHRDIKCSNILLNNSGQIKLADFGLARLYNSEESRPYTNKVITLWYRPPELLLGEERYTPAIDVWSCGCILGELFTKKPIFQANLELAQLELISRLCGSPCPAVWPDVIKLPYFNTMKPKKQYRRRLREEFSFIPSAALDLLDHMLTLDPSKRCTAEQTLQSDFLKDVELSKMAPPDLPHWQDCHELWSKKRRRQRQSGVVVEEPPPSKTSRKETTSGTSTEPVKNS
T1 sequence (O75909 whole entry partner, species assumed, the tested form may be a part): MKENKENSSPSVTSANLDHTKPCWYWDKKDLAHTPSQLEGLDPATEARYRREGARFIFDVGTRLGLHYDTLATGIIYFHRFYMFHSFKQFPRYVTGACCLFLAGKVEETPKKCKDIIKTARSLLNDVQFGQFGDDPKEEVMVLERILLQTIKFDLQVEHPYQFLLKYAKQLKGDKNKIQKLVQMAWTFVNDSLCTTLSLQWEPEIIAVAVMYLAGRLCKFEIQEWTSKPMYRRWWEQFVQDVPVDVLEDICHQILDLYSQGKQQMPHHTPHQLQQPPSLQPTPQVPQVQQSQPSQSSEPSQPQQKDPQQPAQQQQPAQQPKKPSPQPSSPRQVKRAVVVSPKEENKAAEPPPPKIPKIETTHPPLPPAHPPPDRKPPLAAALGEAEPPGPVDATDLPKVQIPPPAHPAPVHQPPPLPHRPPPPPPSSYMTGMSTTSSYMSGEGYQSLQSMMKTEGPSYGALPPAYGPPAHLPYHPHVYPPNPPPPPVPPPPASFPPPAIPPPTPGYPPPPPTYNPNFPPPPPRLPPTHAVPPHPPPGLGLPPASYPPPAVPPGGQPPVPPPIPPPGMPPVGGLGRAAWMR
Method: as §1, §2

[5] = biological target: CDK9/Cyclin T1 complex (Homo sapiens, UniProt P50750); assay: CDK9 inhibition assay (Caliper/LabChip EZ Reader kinase assay); type: biochemical; conditions: Table 1; CDK9/Cyclin T1 8 nM, ATP 2 mM, 15 min at 27° C.
Chain of CDK9/Cyclin T1 complex (P50750 whole entry, species assumed): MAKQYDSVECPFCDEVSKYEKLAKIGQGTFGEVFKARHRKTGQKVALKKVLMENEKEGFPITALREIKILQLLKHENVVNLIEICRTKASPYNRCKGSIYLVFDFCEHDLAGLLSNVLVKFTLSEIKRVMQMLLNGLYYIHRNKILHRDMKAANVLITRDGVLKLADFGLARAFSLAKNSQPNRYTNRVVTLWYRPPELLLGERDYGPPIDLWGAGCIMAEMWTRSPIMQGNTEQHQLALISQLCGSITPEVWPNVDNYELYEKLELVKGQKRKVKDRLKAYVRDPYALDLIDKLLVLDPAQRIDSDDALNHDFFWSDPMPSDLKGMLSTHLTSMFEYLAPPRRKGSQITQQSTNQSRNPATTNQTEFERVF
Chain of CDK9/Cyclin T1 complex (O60563 whole entry partner, species assumed): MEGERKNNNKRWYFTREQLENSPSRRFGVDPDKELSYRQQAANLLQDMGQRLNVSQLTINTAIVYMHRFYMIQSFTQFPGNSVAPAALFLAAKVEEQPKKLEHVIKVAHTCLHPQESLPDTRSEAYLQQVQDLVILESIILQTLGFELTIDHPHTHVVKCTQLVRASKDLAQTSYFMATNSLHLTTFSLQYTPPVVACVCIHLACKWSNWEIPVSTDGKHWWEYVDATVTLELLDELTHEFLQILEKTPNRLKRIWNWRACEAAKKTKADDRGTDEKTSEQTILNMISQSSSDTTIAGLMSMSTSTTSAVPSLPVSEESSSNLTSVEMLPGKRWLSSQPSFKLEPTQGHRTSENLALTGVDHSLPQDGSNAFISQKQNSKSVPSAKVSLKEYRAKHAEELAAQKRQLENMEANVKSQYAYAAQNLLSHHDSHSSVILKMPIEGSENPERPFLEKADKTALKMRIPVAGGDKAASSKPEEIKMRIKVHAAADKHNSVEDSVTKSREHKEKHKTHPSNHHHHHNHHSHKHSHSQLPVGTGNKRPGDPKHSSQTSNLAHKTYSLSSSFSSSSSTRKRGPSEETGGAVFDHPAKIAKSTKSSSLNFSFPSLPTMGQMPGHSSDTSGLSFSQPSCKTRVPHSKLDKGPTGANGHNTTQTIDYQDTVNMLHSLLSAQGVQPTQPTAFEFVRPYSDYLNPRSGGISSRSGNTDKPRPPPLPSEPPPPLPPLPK
Method: as §1, §2

pIC50 [2] | pIC50 [3] | pIC50 [4] | pIC50 [5] | Compound | pIC50 ([1]; Homo sapiens, A673, 72 h) | pIC50 [1]
< 5.30 | > 7.70 | 5.30 to 6.70 | < 5.30 | O=C(c1ccc2c(-c3nc(N[C@H]4CCCNC4)ncc3C(F)(F)F)c[nH]c2c1)N1CC[C@H](O)C1 [Compound 204, [(3S)-3-hydroxypyrrolidin-1-yl]-[3-[2-[[(3S)-3-piperidyl]amino]-5-(trifluoromethyl)pyrimidin-4-yl]-1H-indol-6-yl]methanone] | 5.30 to 6.70 | –
< 5.30 | > 7.70 | 5.30 to 6.70 | < 5.30 | O=C(c1ccc2c(-c3nc(N[C@H]4CCCNC4)ncc3C(F)(F)F)c[nH]c2c1)N1CC[C@@H](O)C1 [Compound 205, [(3R)-3-hydroxypyrrolidin-1-yl]-[3-[2-[[(3S)-3-piperidyl]amino]-5-(trifluoromethyl)pyrimidin-4-yl]-1H-indol-6-yl]methanone] | 5.30 to 6.70 | –
< 5.30 | 6.70 to 7.70 | 5.30 to 6.70 | 5.30 to 6.70 | FCCc1cnc(N[C@H]2CCCNC2)nc1-c1c[nH]c2ccccc12 [Compound 206] | 5.30 to 6.70 | –
5.30 to 6.70 | > 7.70 | 5.30 to 6.70 | 5.30 to 6.70 | O[C@H]1CC[C@@H](c2cccc3c(-c4nc(N[C@H]5CCCNC5)ncc4C(F)(F)F)c[nH]c32)CC1 [Compound 207] | > 7.70 | –
< 5.30 | 6.70 to 7.70 | 5.30 to 6.70 | < 5.30 | CC(=O)c1cnc(N[C@H]2CCCNC2)nc1-c1c[nH]c2ccccc12 [Compound 208] | 6.70 to 7.70 | –
5.30 to 6.70 | 6.70 to 7.70 | 5.30 to 6.70 | 5.30 to 6.70 | CC[C@@H]1CC[C@H](Nc2ncc(C(F)(F)F)c(-c3c[nH]c4ccccc34)n2)CN1 [Compound 211] | 6.70 to 7.70 | –
5.30 to 6.70 | > 7.70 | 5.30 to 6.70 | 5.30 to 6.70 | FC(F)(F)c1cnc(N[C@H]2CCC3(CC3)NC2)nc1-c1c[nH]c2ccccc12 [Compound 212] | > 7.70 | –
5.30 to 6.70 | 6.70 to 7.70 | 5.30 to 6.70 | 5.30 to 6.70 | CC(C)(O)Cn1cc(-c2ccc3c(-c4nc(N[C@H]5CCCNC5)ncc4C(F)(F)F)c[nH]c3c2)cn1 [Compound 214, 2-methyl-1-[4-[3-[2-[[(3S)-3-piperidyl]amino]-5-(trifluoromethyl)pyrimidin-4-yl]-1H-indol-6-yl]pyrazol-1-yl] propan-2-ol] | 6.70 to 7.70 | –
< 5.30 | 6.70 to 7.70 | < 5.30 | < 5.30 | FC(F)(F)c1cnc(NC2CNCc3ccccc32)nc1-c1c[nH]c2ccccc12 (centres unmarked) [Compound 215] | 5.30 to 6.70 | –
5.30 to 6.70 | 5.30 to 6.70 | < 5.30 | < 5.30 | FC(F)(F)c1cnc(NC2CNCc3ccccc32)nc1-c1c[nH]c2ccccc12 (centres unmarked) [Compound 216] | – | 5.30 to 6.70
5.30 to 6.70 | > 7.70 | 5.30 to 6.70 | 5.30 to 6.70 | CC[C@H]1CC[C@H](Nc2ncc(C(F)(F)F)c(-c3c[nH]c4ccccc34)n2)CN1 [Compound 217] | 6.70 to 7.70 | –
5.30 to 6.70 | > 7.70 | 5.30 to 6.70 | 5.30 to 6.70 | C=Cc1cnc(N[C@H]2CCCNC2)nc1-c1c[nH]c2ccccc12 [Compound 218] | 6.70 to 7.70 | –
5.30 to 6.70 | > 7.70 | 5.30 to 6.70 | 5.30 to 6.70 | CS(=O)(=O)Cc1ccc2c(-c3nc(N[C@H]4CCCNC4)ncc3C(F)(F)F)c[nH]c2c1 [Compound 219, 4-[6-(methylsulfonylmethyl)-1H-indol-3-yl]-N-[(3S)-3-piperidyl]-5-(trifluoromethyl) pyrimidin-2-amine] | 6.70 to 7.70 | –
5.30 to 6.70 | 6.70 to 7.70 | 5.30 to 6.70 | 5.30 to 6.70 | FC(F)(F)c1cnc(NC2C3CCC2NC3)nc1-c1c[nH]c2ccccc12 (centres unmarked) [Compound 222, N-[4-(1H-indol-3-yl)-5-(trifluoromethyl)pyrimidin-2-yl]-3-azabicyclo [2.2.1]heptan-7-amine] | 6.70 to 7.70 | –
5.30 to 6.70 | > 7.70 | 5.30 to 6.70 | 5.30 to 6.70 | FC(F)(F)c1cnc(N[C@H]2CCCNC2)nc1-c1c[nH]c2cc(-c3cccnc3)ccc12 [Compound 223, N-[(3S)-3-piperidyl]-4-[6-(3-pyridyl)-1H-indol-3-yl]-5-(trifluoromethyl) pyrimidin-2-amine] | 6.70 to 7.70 | –
5.30 to 6.70 | > 7.70 | 5.30 to 6.70 | 5.30 to 6.70 | FC(F)(F)c1cnc(N[C@H]2CCCNC2)nc1-c1c[nH]c2cc(-c3ccncc3)ccc12 [Compound 224, N-[(3S)-3-piperidyl]-4-[6-(4-pyridyl)-1H-indol-3-yl]-5-(trifluoromethyl) pyrimidin-2-amine] | 6.70 to 7.70 | –
5.30 to 6.70 | > 7.70 | 5.30 to 6.70 | 5.30 to 6.70 | Cn1cc(-c2ccc3c(-c4nc(N[C@H]5CCCNC5)ncc4C(F)(F)F)c[nH]c3c2)cc1C#N [Compound 225, 1-methyl-4-[3-[2-[[(3S)-3-piperidyl]amino]-5-(trifluoromethyl)pyrimidin-4-yl]-1H-indol-6-yl] pyrrole-2-carbonitrile] | 6.70 to 7.70 | –
5.30 to 6.70 | > 7.70 | 5.30 to 6.70 | 5.30 to 6.70 | Cc1nn(C)cc1-c1ccc2c(-c3nc(N[C@H]4CCCNC4)ncc3C(F)(F)F)c[nH]c2c1 [Compound 226, 4-[6-(1,3-dimethylpyrazol-4-yl)-1H-indol-3-yl]-N-[(3S)-3-piperidyl]-5-(trifluoromethyl) pyrimidin-2-amine] | > 7.70 | –
5.30 to 6.70 | > 7.70 | 5.30 to 6.70 | 5.30 to 6.70 | Cc1c(-c2ccc3c(-c4nc(N[C@H]5CCCNC5)ncc4C(F)(F)F)c[nH]c3c2)cnn1C [Compound 227, 4-[6-(1,5-dimethylpyrazol-4-yl)-1H-indol-3-yl]-N-[(3S)-3-piperidyl]-5-(trifluoromethyl) pyrimidin-2-amine] | 6.70 to 7.70 | –
5.30 to 6.70 | > 7.70 | 5.30 to 6.70 | 5.30 to 6.70 | O=C([C@H]1CC[C@H](Nc2ncc(C(F)(F)F)c(-c3c[nH]c4ccccc34)n2)CN1)N1CCCC1 [Compound 228] | 6.70 to 7.70 | –
5.30 to 6.70 | > 7.70 | 5.30 to 6.70 | 5.30 to 6.70 | Cc1n[nH]cc1-c1ccc2c(-c3nc(N[C@H]4CCCNC4)ncc3C(F)(F)F)c[nH]c2c1 [Compound 229, 4-[6-(3-methyl-1H-pyrazol-4-yl)-1H-indol-3-yl]-N-[(3S)-3-piperidyl]-5-(trifluoromethyl) pyrimidin-2-amine] | > 7.70 | –
5.30 to 6.70 | > 7.70 | 5.30 to 6.70 | 5.30 to 6.70 | FC(F)(F)c1cnc(N[C@H]2CCCNC2)nc1-c1c[nH]c2cc(-c3ccnnc3)ccc12 [Compound 230, N-[(3S)-3-piperidyl]-4-(6-pyridazin-4-yl-1H-indol-3-yl)-5-(trifluoromethyl) pyrimidin-2-amine] | 6.70 to 7.70 | –
< 5.30 | < 5.30 | < 5.30 | < 5.30 | CCc1cnc(-c2c[nH]c3ncc(F)cc23)nc1N[C@H]1CCCNC1 [Compound 231, 5-ethyl-2-(5-fluoro-1H-pyrrolo [2,3-b]pyridin-3-yl)-N-[(3S)-3-piperidyl] pyrimidin-4-amine] | 5.30 to 6.70 | –
5.30 to 6.70 | > 7.70 | 5.30 to 6.70 | 5.30 to 6.70 | N#Cc1cc(-c2ccc3c(-c4nc(N[C@H]5CCCNC5)ncc4C(F)(F)F)c[nH]c3c2)c[nH]1 [Compound 233, 4-[3-[2-[[(3S)-3-piperidyl]amino]-5-(trifluoromethyl)pyrimidin-4-yl]-1H-indol-6-yl]-1H-pyrrole-2-carbonitrile] | 6.70 to 7.70 | –
5.30 to 6.70 | > 7.70 | 5.30 to 6.70 | 5.30 to 6.70 | Cc1nc(-c2ccc3c(-c4nc(N[C@H]5CCCNC5)ncc4C(F)(F)F)c[nH]c3c2)n[nH]1 [Compound 235] | 5.30 to 6.70 | –
